According to the supplement of paper PMC13380429:

What was measured:
Conditions in all cases: 72 h
[1] = system: Caco-2; assay: cell viability relative to DMSO; higher = less toxic
[2] = system: Calu-3; assay: as above
[3] = system: HepG2; assay: as above
[4] = system: U2OS; assay: as above
[5] = system: Vero E6; assay: as above
[6] = system: Caco-2; assay: relative viability EC50 (midpoint between 100% and the lowest measured viability); higher = less toxic
[7] = system: Calu-3; assay: as above
[8] = system: HepG2; assay: as above
[9] = system: Vero E6; assay: as above
[10] = system: Caco-2; assay: drug sensitivity score (DSS) for viability; higher = more toxic; extreme values may be limits of the assay
[11] = system: Calu-3; assay: as above
[12] = system: HepG2; assay: as above
[13] = system: U2OS; assay: as above
[14] = system: Vero E6; assay: as above
[15] = system: U2OS; assay: relative viability EC50 (midpoint between 100% and the lowest measured viability); higher = less toxic

| SMILES | cell viability ([1]; 1 nM) [%] | cell viability ([1]; 10 nM) [%] | cell viability ([1]; 100 nM) [%] | cell viability ([1]; 1000 nM) [%] | cell viability ([1]; 10000 nM) [%] | cell viability ([2]; 1 nM) [%] | cell viability ([2]; 10 nM) [%] | cell viability ([2]; 100 nM) [%] | cell viability ([2]; 1000 nM) [%] | cell viability ([2]; 10000 nM) [%] | cell viability ([3]; 1 nM) [%] | cell viability ([3]; 10 nM) [%] | cell viability ([3]; 100 nM) [%] | cell viability ([3]; 1000 nM) [%] | cell viability ([3]; 10000 nM) [%] | cell viability ([4]; 1 nM) [%] | cell viability ([4]; 10 nM) [%] | cell viability ([4]; 100 nM) [%] | cell viability ([4]; 1000 nM) [%] | cell viability ([4]; 10000 nM) [%] | cell viability ([5]; 1 nM) [%] | cell viability ([5]; 10 nM) [%] | cell viability ([5]; 100 nM) [%] | cell viability ([5]; 1000 nM) [%] | cell viability ([5]; 10000 nM) [%] | relative viability EC50 [6] [µM] | relative viability EC50 [7] [µM] | relative viability EC50 [8] [µM] | relative viability EC50 [9] [µM] | drug sensitivity score [10] | drug sensitivity score [11] | drug sensitivity score [12] | drug sensitivity score [13] | drug sensitivity score [14] | relative viability EC50 [15] [µM] |
| --- | --- | --- | --- | --- | --- | --- | --- | --- | --- | --- | --- | --- | --- | --- | --- | --- | --- | --- | --- | --- | --- | --- | --- | --- | --- | --- | --- | --- | --- | --- | --- | --- | --- | --- | --- |
| Nc1nccc2c1ncn2C1C=C(CO)C(O)C1O (stereo not drawn) [3-deazaneplanocin-A] | 102 | 104 | 99.3 | 88 | 77 | 97.4 | 97.5 | 108 | 85.9 | 89.9 | 105 | 106 | 86.7 | 62.7 | 25.7 | 105 | 97.4 | 91.8 | 69.3 | 57.8 | 98.8 | 100 | 89.1 | 56.6 | 36.2 | > 10 | > 10 | 0.832 | 0.47 | 2 | 1 | 8.8 | 6.3 | 9.4 |  |
| CC(=O)Nc1nc2c(Oc3cc(-c4ccc(C(F)(F)F)cc4)ncn3)cccc2s1 [AMG-517] | 102 | 96.5 | 103 | 97.2 | 94.4 | 104 | 86.1 | 100 | 92.4 | 92.5 | 112 | 98.3 | 95.4 | 102 | 91.8 |  |  |  |  |  | 101 | 102 | 101 | 102 | 99.4 | > 10 | > 10 | > 10 | > 10 | 0 | 0 | 0 |  | 0 |  |
| CCOC(=O)CNC(=O)[C@@H]1CCCN1C(=O)Cc1ccccc1 [DVD-111] | 110 | 102 | 114 | 97 | 107 | 106 | 98.4 | 106 | 93.7 | 116 | 98.8 | 97.2 | 90.9 | 93.5 | 96.9 |  |  |  |  |  | 103 | 105 | 98.8 | 104 | 101 | > 10 | > 10 | > 10 | > 10 | 0 | 0 | 0 |  | 0 |  |
| CCc1cccc(CC)c1NC(=O)c1nn(C)c2c1CCc1cnc(Nc3ccc(C(=O)NC4CCN(C)CC4)cc3OC(F)(F)F)nc1-2 [NMS-P715] |  |  |  |  |  | 91.9 | 97.7 | 98.8 | 105 | 104 | 114 | 103 | 107 | 112 | 48.2 | 95.9 | 99.7 | 98.1 | 102 | 98.7 | 104 | 88.8 | 104 | 94.7 | 84.7 |  | > 10 | 3.99 | > 10 |  | 0 | 2.1 | 0 | 0.7 | > 10 |
| C=CCc1cccc(/C=N/NC(=O)CN2CCN(Cc3ccccc3)CC2)c1O [PAC-1] | 98.2 | 102 | 91.5 | 82.3 | 8 | 89.6 | 103 | 102 | 101 | 15.8 | 104 | 105 | 94 | 87 | 11.5 | 97.5 | 101 | 95.9 | 96.6 | 50.6 | 103 | 103 | 104 | 95.9 | 48.7 | 1.77 | 3.25 | 2 | 2.52 | 8 | 4.6 | 7.1 | 3.1 | 3.3 |  |
| Cc1cccc(C)c1NC(=O)C[N+](C)(C)C [QX-222] | 107 | 97 | 99.1 | 100 | 112 | 102 | 93.8 | 107 | 94.9 | 106 | 106 | 103 | 99 | 95.5 | 95.8 |  |  |  |  |  | 102 | 101 | 98.7 | 105 | 99.7 | > 10 | > 10 | > 10 | > 10 | 0 | 0 | 0 |  | 0 |  |
| CCOC(=O)c1ncn2c1CN(C)C(=O)c1cc(N=[N+]=[N-])ccc1-2 [Ro-15-4513] | 96.2 | 100 | 94.6 | 99.6 | 109 | 103 | 93.9 | 97 | 102 | 108 | 107 | 92.2 | 102 | 99.1 | 112 |  |  |  |  |  | 94.6 | 94 | 99.3 | 97.2 | 104 | > 10 | > 10 | > 10 | > 10 | 0 | 0 | 0 |  | 0 |  |
